Paper PMC2192852 (The Journal of Experimental Medicine, 1996)
Where no end group is shown, it is not given here. [ ]: non-standard residue; d: D form. Abu = CC[C@H](N)C(=O)O

test system: CH27 B cell lymphoma; experiment: not given; format: cell-based; conditions: Fig. 4; from EC40 in apoptosis assay relative to wild-type peptide

Row | Substance | Relative Activity (Hb(64-76) arbitrarily assigned 100)
1 | GKKVITAF[Abu]EGLK [Abu72] | 5
2 | GKKVITAFVEGLK [V72] | 2
3 | GKKVITAFTEGLK [T72] | 2
4 | GKKVITAFCEGLK [C72] | 2
5 | GKKVITAFNEGLK [Hb(64-76), reference compound] | 100

same assay, conditions: Fig. 5; 3.L2 clone, 24 h

Row | Substance | Induction of apoptosis of CH27
6 | GKKVITAFEEGLK [E72] | negative
7 | GKKVITAFSEGLK [$72] | did not induce any apoptosis
8 | GKKVITAFLEGLK [L72] | did not induce any apoptosis
9 | GKKVITAFGEGLK [G72] | did not induce any apoptosis

test system: 3.L2 TCR; experiment: not given; format: cell-based; conditions: Fig. 3; CH27 prepulsed with 0.1 µM Hb(64-76)

Row | Substance | Concentration at which slight inhibition of the 3.L2.12 response was seen [µM]
10 | GKKVITAFDEGLK [D72] | > 100
11 | GKKVITAFMEGLK [M72] | > 100
12 | GKKVITAFYEGLK [Y72] | > 100

test system: 3.L2 TCR; experiment: T cell hybridoma agonist assay: IL-2 production by the 3.L2.12 hybridoma; format: cell-based; conditions: Fig. 6, single agonist assay, representative of at least three experiments

Row | Substance | Concentration at which peptide is active (IL-2 production) [µM]
13 | GKKVITAFNEGLK [Hb(64-76), reference compound] | 0.01
